{"source": "PubChem BioAssay AID624439", "about": "(The Scripps Research Institute Molecular Screening Center, 2012)", "note": "Calls of active or inactive are those of the source.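 How the source made its calls: active means compounds with an IC50 below 50 µM against the phosphatase; inactive means IC50 at 50 µM or above.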", "data": [{"target": "Serine/threonine-protein phosphatase 5 (Homo sapiens) (UniProt P53041)", "sequence (P53041 whole entry, looked up)": "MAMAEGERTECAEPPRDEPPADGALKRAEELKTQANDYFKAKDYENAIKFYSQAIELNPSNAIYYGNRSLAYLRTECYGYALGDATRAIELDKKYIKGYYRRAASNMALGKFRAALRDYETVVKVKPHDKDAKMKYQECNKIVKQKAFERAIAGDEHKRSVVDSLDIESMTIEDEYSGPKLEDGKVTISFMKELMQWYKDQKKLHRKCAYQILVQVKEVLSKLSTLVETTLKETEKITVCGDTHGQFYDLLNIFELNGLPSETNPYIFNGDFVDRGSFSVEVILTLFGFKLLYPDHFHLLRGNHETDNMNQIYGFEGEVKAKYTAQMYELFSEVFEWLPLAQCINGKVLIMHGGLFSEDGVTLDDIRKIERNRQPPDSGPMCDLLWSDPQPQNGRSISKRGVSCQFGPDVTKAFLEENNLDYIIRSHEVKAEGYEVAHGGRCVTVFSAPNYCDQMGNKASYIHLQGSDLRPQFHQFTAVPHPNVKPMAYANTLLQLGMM", "assay": "PP5c inhibitor potency on phosphohistone, late-stage follow-up, orthogonal assay, biochemical, radiolabeled phosphohistone, dose response, round 5 (AID 624439)", "conditions": "purified PP5c, 33P-phosphohistone dephosphorylation, scintillation", "values": [{"smiles": "O=C(O)c1n[nH]nc1-c1ccccc1O", "IC50": "31.4 µM"}, {"smiles": "O=C(O)c1n[nH]nc1-c1ccc(F)cc1", "IC50": "inactive"}, {"smiles": "COc1cccc(-c2n[nH]nc2C(=O)O)c1", "IC50": "49 µM"}, {"smiles": "COc1ccc(-c2n[nH]nc2C(=O)O)cc1", "IC50": "inactive"}, {"smiles": "COc1ccccc1-c1n[nH]nc1C(=O)O", "IC50": "29.7 µM"}, {"smiles": "O=C(O)c1n[nH]nc1-c1cccc(F)c1", "IC50": "inactive"}, {"smiles": "O=C(O)c1n[nH]nc1-c1ccccc1F", "IC50": "42.2 µM"}, {"smiles": "CC(C)Oc1ccccc1-c1n[nH]nc1C(=O)O", "IC50": "17.1 µM"}]}]}
